Where a name gives a salt, the structure may show the parent alone.
Assay: physchem
Conditions: FaSSIF buffer, 25 °C, thermodynamic from solid

solubility at 4 h: 206 µg/mL
Structure (SMILES): C[C@@]1(O)[C@@H]([C@H](O)c2ccc(Cl)c(Cl)c2)O[C@@H](n2ccc3c(N)ncnc32)[C@@H]1O [Example 48, (2R,3S,4R,5R)-5-(4-amino-7H-pyrrolo[2,3-d]pyrimidin-7-yl)-2-((R)-(3,4-dichlorophenyl)(hydroxy)methyl)-3-methyltetrahydrofuran-3,4-diol Sulfate Salt]

Source: patent US10570140B2, “Selective inhibitors of protein arginine methyltransferase 5 (PRMT5)” (Prelude Therapeutics, Incorporated, priority 2017, dated 2020)
